According to PubChem BioAssay AID330 (DTP/NCI, 2004):
Inconclusive results and toxic doses are left out. How the source made its calls: active means survival T/C of 150% or more; inactive means T/C below 125% in these data.

System: P388 leukemia ip, CD2F1 mice, survival T/C
Assay: NCI In Vivo Anticancer Drug Screen. Data for tumor model P388 Leukemia (intraperitoneal) in CD2F1 (CDF1) mice
Conditions: endpoint: median survival time, higher = longer survival
Method in brief: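 Mice carrying the transplanted tumor received test compound or vehicle. Survival was recorded in each group, and the value is the treated-group measurement divided by that of the vehicle-treated control group.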

[1] = dose: 50.0 mg/kg/injection, schedule: Q01DX009 (ip), vehicle: saline with Tween-80
[2] = dose: 100.0 mg/kg/injection, schedule: Q01DX009 (ip), vehicle: saline with Tween-80
[3] = dose: 50.0 mg/kg/injection, schedule: Q01DX005 (ip), vehicle: saline with Tween-80
[4] = dose: 100.0 mg/kg/injection, schedule: Q01DX005 (ip), vehicle: saline with Tween-80
[5] = dose: 200.0 mg/kg/injection, schedule: Q01DX005 (ip), vehicle: saline with Tween-80
[6] = dose: 60.0 mg/kg/injection, schedule: Q01DX005 (ip), vehicle: saline with Tween-80
[7] = dose: 120.0 mg/kg/injection, schedule: Q01DX005 (ip), vehicle: saline with Tween-80
[8] = dose: 240.0 mg/kg/injection, schedule: Q01DX005 (ip), vehicle: saline with Tween-80
[9] = dose: 100.0 mg/kg/injection, schedule: Q04DX003 (ip), vehicle: Klucel (hydroxypropylcellulose) (HPC)
[10] = dose: 200.0 mg/kg/injection, schedule: Q04DX003 (ip), vehicle: Klucel (hydroxypropylcellulose) (HPC)
[11] = dose: 400.0 mg/kg/injection, schedule: Q04DX003 (ip), vehicle: Klucel (hydroxypropylcellulose) (HPC)
[12] = dose: 100.0 mg/kg/injection, schedule: Q01DX001 (ip), vehicle: Klucel (hydroxypropylcellulose) (HPC)
[13] = dose: 200.0 mg/kg/injection, schedule: Q01DX001 (ip), vehicle: Klucel (hydroxypropylcellulose) (HPC)
[14] = dose: 200.0 mg/kg/injection, schedule: Q01DX009 (ip), vehicle: saline with Tween-80

Measured: T/C

O=C(Nc1cccc(Cl)c1)N1CC1
inactive: [1] 105 % of control | [2] 113 % of control

CCCCCN(CCCCC)CC(O)CN1CCCc2ccccc21 (stereo not given)
inactive: [3] 102 % of control | [4] 111 % of control | [5] 112 % of control

COc1ccc2nc3cc(Cl)ccc3c(NCC(O)CNc3c4ccc(Cl)cc4nc4ccc(OC)nc34)c2n1
inactive: [6] 92 % of control | [7] 90 % of control | [8] 90 % of control

Nc1cccc2c1C(=O)c1ccccc1C2=O
inactive: dose: 50.0 mg/kg/injection, schedule: Q04DX003 (ip), vehicle: Klucel (hydroxypropylcellulose) (HPC) 100 % of control | [9] 101 % of control | [10] 91 % of control | [11] 92 % of control

O=C1NC(=O)C(C2CC2)(C2CC2)N1
inactive: [3] 103 % of control | [4] 101 % of control | [5] 101 % of control

CSc1nccn2cnnc12
inactive: [12] 101 % of control | [13] 104 % of control | dose: 400.0 mg/kg/injection, schedule: Q01DX001 (ip), vehicle: Klucel (hydroxypropylcellulose) (HPC) 101 % of control

CCn1c(Cl)c(/C=N/NC(N)=S)c2ccccc21
inactive: [12] 97 % of control | [13] 91 % of control

CN(C)c1nc2ccccn2c1C(=O)c1ccccc1
inactive: [9] 103 % of control | [10] 100 % of control | [11] 103 % of control

CCOC(=O)NC(=S)Nc1ccsc1
inactive: [1] 99 % of control | [2] 104 % of control | [14] 102 % of control

C#CCOC(=O)c1ccc(C(=O)OCC#C)cc1
inactive: dose: 100.0 mg/kg/injection, schedule: Q04DX003 (ip), vehicle: saline with Tween-80 100 % of control | dose: 200.0 mg/kg/injection, schedule: Q04DX003 (ip), vehicle: saline with Tween-80 90 % of control

COc1cccc2c1C(=O)c1c(O)c3c(c(O)c1C2=O)CC(O)(C1(C)OCC(C)(C)CO1)CC3OC1CC(N)C(O)C(C)O1 (stereo not given)
inactive: dose: 3.13 mg/kg/injection, schedule: Q04DX003 (ip), vehicle: water 104 % of control | dose: 6.25 mg/kg/injection, schedule: Q04DX003 (ip), vehicle: water 106 % of control | dose: 12.5 mg/kg/injection, schedule: Q04DX003 (ip), vehicle: water 111 % of control | dose: 25.0 mg/kg/injection, schedule: Q04DX003 (ip), vehicle: water 104 % of control | dose: 50.0 mg/kg/injection, schedule: Q04DX003 (ip), vehicle: water 95 % of control

CC(=O)OCC(=O)[C@@]1(O)CC[C@H]2[C@@H]3C[C@H](C)C4=CC(=O)C=C[C@]4(C)[C@H]3[C@@H](O)C[C@@]21C
inactive: [2] 118 % of control | [14] 104 % of control | dose: 400.0 mg/kg/injection, schedule: Q01DX009 (ip), vehicle: saline with Tween-80 100 % of control

FC(F)(Br)C(F)(Cl)Br (stereo not given)
inactive: [3] 101 % of control | [4] 99 % of control | [5] 114 % of control

C=CCC1OC(COC(=O)c2ccccc2)C(OC(=O)c2ccccc2)C1OC(=O)c1ccccc1 (stereo not given)
inactive: dose: 25.0 mg/kg/injection, schedule: Q01DX005 (ip), vehicle: Klucel (hydroxypropylcellulose) (HPC) 112 % of control | dose: 44.5 mg/kg/injection, schedule: Q01DX005 (ip), vehicle: Klucel (hydroxypropylcellulose) (HPC) 114 % of control | dose: 50.0 mg/kg/injection, schedule: Q01DX005 (ip), vehicle: Klucel (hydroxypropylcellulose) (HPC) 117 % of control | dose: 89.0 mg/kg/injection, schedule: Q01DX005 (ip), vehicle: Klucel (hydroxypropylcellulose) (HPC) 120 % of control | dose: 100.0 mg/kg/injection, schedule: Q01DX005 (ip), vehicle: Klucel (hydroxypropylcellulose) (HPC) 118 % of control

COC1OC(CO)C(N(C)C(C)=O)C1O (stereo not given)
inactive: dose: 60.0 mg/kg/injection, schedule: Q01DX005 (ip), vehicle: saline 120 % of control | dose: 120.0 mg/kg/injection, schedule: Q01DX005 (ip), vehicle: saline 115 % of control | dose: 240.0 mg/kg/injection, schedule: Q01DX005 (ip), vehicle: saline 106 % of control

CC(C)CC1SCC(=O)N1c1nncs1 (stereo not given)
inactive: [6] 103 % of control | [7] 97 % of control | [8] 98 % of control
